This passage reports GI50 and TGI results from PubChem BioAssay (NCI).

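Cultured in 96-well plates, cells were exposed to test compound for 48 hours across five concentrations. The concentration for 50% growth inhibition is given as GI50. Definition used: TGI = concentration required for complete inhibition of growth.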

Among the test systems are SNB-75 CNS; HOP-92 NSCLC; NCI-H226 lung; TK-10 renal; RXF 393 renal; SK-OV-3 ovarian; SK-MEL-2 melanoma.
Holding throughout (test): NCI anticancer screen, dose series, 48 h

As for `CCN1CCN(Cc2ccc(C(=O)Nc3nc4ccc(Oc5ccnc(C(=O)NC)c5)cc4s3)cc2C(F)(F)F)CC1`, the GI50 is 4.05 µM in the experiment with SNB-75 CNS; 1.01 µM with HOP-92 NSCLC; 2.03 µM in the experiment with NCI-H226 lung; 2.65 µM in the experiment with TK-10 renal; 1.48 µM in the experiment on RXF 393 renal; 7.95 µM in the experiment on SK-OV-3 ovarian. Moreover, in the experiment on SK-MEL-2 melanoma, the GI50 was 1.23 µM. Also, the TGI was 20.8 µM in the experiment on SNB-75 CNS; 7.26 µM in the experiment on HOP-92 NSCLC; above 100 µM in the experiment with NCI-H226 lung; 6.83 µM in the experiment on TK-10 renal; 2.95 µM with RXF 393 renal; 32.2 µM in the experiment with SK-OV-3 ovarian. This compound showed a TGI in the experiment on SK-MEL-2 melanoma of 3.22 µM.
